Measurements as given in US20070128217A1 (priority 2003, published 2007).

What was measured:
[1] = system: control sera (pooled serum of ten healthy LUMC hospital workers; commercial negative donor pooled serum from the Dutch bloodbank); format: binding, human; parameters: Binding of Control serum LUMC to linear peptides / Binding of Control serum Blood-bank to linear peptides / Binding of Control serum LUMC to looped peptides / Binding of Control Serum Blood-Bank to Looped peptides / Binding of Control serum LUMC to linear peptides of the protein M of SARS-CoV Urbani / Binding of Control serum Blood-bank to linear peptides of the protein M of SARS-CoV Urbani / Binding of Control serum LUMC to looped peptides of the protein M of SARS-CoV Urbani / Binding of Control Serum Blood-Bank to Looped peptides of the protein M of SARS-CoV Urbani: unit not given here
[2] = system: rabbit serum obtained by immunizing a rabbit with the SARS-CoV strain Frankfurt 1; format: binding; parameters: Binding of a rabbit serum to linear peptides / Binding of a rabbit serum to looped peptides / Rabbit serum linear peptides / Rabbit serum looped peptides / Binding of a rabbit serum to linear peptides of protein N of SARS-CoV Urbani (Rabbit serum linear peptides) / Binding of a rabbit serum to looped/cyclic peptides of protein N of SARS-CoV Urbani (Rabbit serum looped peptides): unit not given here

Sequence | Binding of Control Serum Blood-Bank to Looped peptides [1] | Binding of Control serum Blood-bank to linear peptides [1] | Binding of Control serum LUMC to linear peptides [1] | Binding of Control serum LUMC to looped peptides [1] | Rabbit serum linear peptides [2] | Rabbit serum looped peptides [2] | Binding of a rabbit serum to linear peptides [2] | Binding of a rabbit serum to looped peptides [2] | further results
INCQDPAGGALIARC | 0.9 | 1.1 | 0.6 | 0.7 | 0.5 | 0.6 | – | – | –
INWVTGGIAIAMACI | – | – | – | – | 0.5 | 0.4 | – | – | Binding of Control Serum Blood-Bank to Looped peptides of the protein M of SARS-CoV Urbani [1]: 0.6; Binding of Control serum Blood-bank to linear peptides of the protein M of SARS-CoV Urbani [1]: 0.8; Binding of Control serum LUMC to linear peptides of the protein M of SARS-CoV Urbani [1]: 0.5; Binding of Control serum LUMC to looped peptides of the protein M of SARS-CoV Urbani [1]: 0.9
ISSIVRQLFKPLTKK | – | – | – | – | 0.3 | 0.5 | – | – | Binding of Control Serum Blood-Bank to Looped peptides of the protein X3 of SARS-CoV Urbani [1]: 0.8; Binding of Control serum Blood-bank to linear peptides of the protein X3 of SARS-CoV Urbani [1]: 0.8; Binding of Control serum LUMC to linear peptides of the protein X3 of SARS-CoV Urbani [1]: 0.9; Binding of Control serum LUMC to looped peptides of the protein X3 of SARS-CoV Urbani [1]: 0.7
IVRQLFKPLTKKNYS | – | – | – | – | 0.4 | 0.6 | – | – | Binding of Control Serum Blood-Bank to Looped peptides of the protein X3 of SARS-CoV Urbani [1]: 0.9; Binding of Control serum Blood-bank to linear peptides of the protein X3 of SARS-CoV Urbani [1]: 0.9; Binding of Control serum LUMC to linear peptides of the protein X3 of SARS-CoV Urbani [1]: 0.8; Binding of Control serum LUMC to looped peptides of the protein X3 of SARS-CoV Urbani [1]: 0.9
KDPPNVQIHTIDGSS | 1.1 | 0.3 | 0.3 | 1.1 | – | – | 0.1 | 0.9 | –
KKTTKLVVILRIGTQ | 0.6 | 0.4 | 0.5 | 0.8 | – | – | – | – | Recognition of the peptide by the rabbit serum [2]: recognized
KLKEDYQIGGYSEDR | 0.5 | 0.5 | 0.5 | 0.6 | – | – | 0.1 | 0.5 | –
KLNTDHAGSNDNIAL | – | – | – | – | 0.4 | 0.3 | – | – | Binding of Control Serum Blood-Bank to Looped peptides of the protein M of SARS-CoV Urbani [1]: 1.0; Binding of Control serum Blood-bank to linear peptides of the protein M of SARS-CoV Urbani [1]: 0.9; Binding of Control serum LUMC to linear peptides of the protein M of SARS-CoV Urbani [1]: 0.7; Binding of Control serum LUMC to looped peptides of the protein M of SARS-CoV Urbani [1]: 0.9
KLVKDPPNVQIHTID | 0.4 | 0.4 | 0.5 | 0.4 | – | – | 0.1 | 0.4 | –
KNYSELDDEEPMELD | – | – | – | – | 0.3 | 0.2 | – | – | Binding of Control Serum Blood-Bank to Looped peptides of the protein X3 of SARS-CoV Urbani [1]: 0.6; Binding of Control serum Blood-bank to linear peptides of the protein X3 of SARS-CoV Urbani [1]: 0.7; Binding of Control serum LUMC to linear peptides of the protein X3 of SARS-CoV Urbani [1]: 0.6; Binding of Control serum LUMC to looped peptides of the protein X3 of SARS-CoV Urbani [1]: 0.8
KPLTKKNYSELDDEE | – | – | – | – | 0.4 | 0.5 | – | – | Binding of Control Serum Blood-Bank to Looped peptides of the protein X3 of SARS-CoV Urbani [1]: 0.8; Binding of Control serum Blood-bank to linear peptides of the protein X3 of SARS-CoV Urbani [1]: 0.7; Binding of Control serum LUMC to linear peptides of the protein X3 of SARS-CoV Urbani [1]: 0.8; Binding of Control serum LUMC to looped peptides of the protein X3 of SARS-CoV Urbani [1]: 0.7
KPTVYVYSRVKNLNS | 0.9 | 0.7 | 0.8 | 0.9 | – | – | 0.6 | 0.9 | –
KTMSLYMAISPKFTT | 0.7 | 0.7 | 0.6 | 1.0 | – | – | 0.3 | 0.8 | –
KTTKLVVILRIGTQV | 0.7 | 0.4 | 0.5 | 0.7 | – | – | – | – | Recognition of the peptide by the rabbit serum [2]: recognized
LCAYCCNIVNVSLVK | 0.8 | 1.1 | 0.8 | 0.7 | – | – | 0.7 | 0.4 | –
LGRCDIKDLPKEITV | – | – | – | – | 0.1 | 0.6 | – | – | Binding of Control Serum Blood-Bank to Looped peptides of the protein M of SARS-CoV Urbani [1]: 0.8; Binding of Control serum Blood-bank to linear peptides of the protein M of SARS-CoV Urbani [1]: 0.7; Binding of Control serum LUMC to linear peptides of the protein M of SARS-CoV Urbani [1]: 0.5; Binding of Control serum LUMC to looped peptides of the protein M of SARS-CoV Urbani [1]: 0.8
LIIIMRTFRIAIWNL | – | – | – | – | 0.5 | 0.3 | – | – | Binding of Control Serum Blood-Bank to Looped peptides of the protein X3 of SARS-CoV Urbani [1]: 0.6; Binding of Control serum Blood-bank to linear peptides of the protein X3 of SARS-CoV Urbani [1]: 0.7; Binding of Control serum LUMC to linear peptides of the protein X3 of SARS-CoV Urbani [1]: 0.6; Binding of Control serum LUMC to looped peptides of the protein X3 of SARS-CoV Urbani [1]: 0.7
LKTMSLYMAISPKFT | 0.6 | 0.7 | 0.6 | 0.6 | – | – | 0.1 | 0.4 | –
LTKKNYSELDDEEPM | – | – | – | – | 0.2 | 0.4 | – | – | Binding of Control Serum Blood-Bank to Looped peptides of the protein X3 of SARS-CoV Urbani [1]: 0.8; Binding of Control serum Blood-bank to linear peptides of the protein X3 of SARS-CoV Urbani [1]: 0.9; Binding of Control serum LUMC to linear peptides of the protein X3 of SARS-CoV Urbani [1]: 0.6; Binding of Control serum LUMC to looped peptides of the protein X3 of SARS-CoV Urbani [1]: 1.0
LYHYQECVRGTTVLL | 0.7 | 0.6 | 0.6 | 0.6 | 0.6 | 0.3 | – | – | –
MDPIYDEPTTTTSVP | 0.3 | 0.6 | 0.5 | 0.3 | – | – | 0.1 | 0.3 | –
NGTITVEELKQLLEQ | – | – | – | – | – | – | – | – | Binding of Control Serum Blood-Bank to Looped peptides of the protein M of SARS-CoV Urbani [1]: 0.6; Binding of Control serum Blood-bank to linear peptides of the protein M of SARS-CoV Urbani [1]: 0.7; Binding of Control serum LUMC to linear peptides of the protein M of SARS-CoV Urbani [1]: 0.5; Binding of Control serum LUMC to looped peptides of the protein M of SARS-CoV Urbani [1]: 0.8; Recognition of the peptide by the rabbit serum [2]: recognized
NSKKTTKLVVILRIG | 0.7 | 0.4 | 0.9 | 0.7 | – | – | – | – | Recognition of the peptide by the rabbit serum [2]: recognized
NVSLVKPTVYVYSRV | 0.7 | 0.6 | 0.5 | 0.8 | – | – | 0.5 | 0.3 | –
